Data taken from patent publication US20160058829A1, “ANTI-FIBROTIC PEPTIDES AND THEIR USE IN METHODS FOR TREATING DISEASES AND DISORDERS CHARACTERIZED BY FIBROSIS” (Thrasos Innovation, Inc., priority 2011, published 2016).
Positions of bridges follow the written chain, without caps; N, C: chain ends.

Columns and labels:
[1] = system: cisplatin-induced nephrotoxicity in rats; test: Cisplatin-induced nephrotoxicity in rats; assay type: in vivo; details: cisplatin plus THR-123 versus cisplatin alone
Excerpt: FIG. 38 Tumor necrosis factor-a (TNF-a) production via p38 mitogen-activated protein kinase (MAPK) is one of the pivotal mechanisms in the development of AKI induced by a nephrotoxic agent, cisplatin (Ramesh, G and Reeves, W B. Am J Physiol Renal Physiol 289:F166-F174, 2005). Therefore THR-123 was further examined to determine if the compound is capable of inhibiting cisplatin-induced nephrotoxicity in animals. The upper right and left panels in the figure show Kidney sections immunostained for ICAM-1 expression and the lower right and left panels show immunostaining for the presence of macrophages. The kidney sections in the left column were treated with cisplatin alone and the right column panels were treated with cisplatin and THR-123. Arrows in the upper panel indicate ICAM-1 expression which was reduced by THR-123. Arrows in the lower panel indicate infiltration of macrophages as detected by Mac CD-68 staining, which was reduced by THR-123.

[2] = system: Alk-3 deleted mice and control mice, NTN; test: NTN in Alk-3 deleted (γGT-Cre; Alk3 flox/flox) and control mice; assay type: in vivo
Description: FIG. 76A-FIG. 76T THR-123 acts on tubule Alk3 as a receptor in kidney disease models. FIG. 76A-FIG. 76D, The effect of THR-123 on the IRI model kidney injury in Alk3^flox/flox and […]GTCre; Alk3^flox/flox mice. After ischemia reperfusion injury the mice were given THR-123 orally (5 mg/kg/day) till the day of sacrifice. FIG. 76A-FIG. 76C, the representative H&E staining picture of indicated group of mice are shown. FIG. 76D. Percentage renal tubular necrosis in IRI. Ten fields in each group were analyzed. Data are shown as mean±s.e.m. in the graph. FIG. 76E-FIG. 76T, The effect of THR-123 on the NTN model kidney injury in Alk3^flox/flox and gGTCre; Alk3^flox/flox mice. Six weeks after NTN was introduced in the indicated groups of mice, mice were treated with PBS or THR-123 orally. FIG. 76E-FIG. 76H, the representative MTS staining picture of indicated group of mice are shown. FIG. 76I, Morphometric analyses from 9 weeks of NTN models in indicated groups. FIG. 76J-FIG. 76N, Macrophage accumulation analysis in the kidney of NTN model in Alk3^flox/flox and gGTCre; Alk3^flox/flox mice. FIG. 76J-FIG. 76M, Mac-1 immunofluorescence study of indicated groups of mice. FIG. 76N, The number of macrophages per field of view (×400 magnification) was assessed by counting positively labeled cells in 5 random fields of view per slide, with 5 slides per experimental group. Data are shown as mean±s.e.m. in the graph. FIG. 76O-FIG. 76S, EMT analysis, FIG. 76O-FIG. 76R, E-cadherin/FSP1 immunolabeling of kidney in NTN-induced Alk3^flox/flox and GTCre; Alk3^flox/flox mice treated with either PBS or THR-123. FIG. 76S. Percent of E-cadherin/FSP1 double positive tubule. 500 tubules per slide, 5 slides per experimental group were analyzed. Data are expressed as mean±s.e.m. in the graph. FIG. 76T, Blood urea nitrogen measurement in 6 and 9 weeks of NTN in indicated groups of mice (all n=4).
FIG. 79A-FIG. 79D. Tubule cell apoptosis was analyzed in frozen kidney sections of indicated groups of animals by TUNEL staining. Representative pictures were shown. FIG. 79D. Quantification of TUNEL positive tubule cells. The number of TUNEL positive tubules per field of view (×200 magnification) was assessed by counting positively labeled cells in 5 random fields of view per slide, with 5 slides per experimental group.
Alk-3 flox mice are provided by Dr. Yuji Mishina, National Institutes of Health with material transfer agreements. γGT-Cre mice are provided from Dr. Eric Neilson, Vanderbilt University Medical Center. NTN is induced by the method described above.

Question: What does the source list for “(H)-CYFDDSSNVLCKKYRS-(OH) (H-CYFDDSSNVLCKKYRS-OH; disulfide 1-11; SMILES CC(C)C[C@@H]1NC(=O)[C@H](C(C)C)NC(=O)[C@H](CC(N)=O)NC(=O)[C@H](CO)NC(=O)[C@H](CO)NC(=O)[C@H](CC(=O)O)NC(=O)[C@H](CC(=O)O)NC(=O)[C@H](Cc2ccccc2)NC(=O)[C@H](Cc2ccc(O)cc2)NC(=O)[C@@H](N)CSSC[C@@H](C(=O)N[C@@H](CCCCN)C(=O)N[C@@H](CCCCN)C(=O)N[C@@H](Cc2ccc(O)cc2)C(=O)N[C@@H](CCCNC(=N)N)C(=O)N[C@@H](CO)C(=O)O)NC1=O) [SEQ ID NO: 1]”?
Answer: ICAM-1 expression in kidney sections [1]: reduced; infiltration of macrophages (Mac CD-68 staining) [1]: reduced; renal function (blood urea nitrogen), NTN ([2]; Alk3-deleted mice): not realized; EMT program in the tubules, NTN ([2]; Alk3 deleted mice): did not inhibit; apoptosis, NTN kidney ([2]; Alk3 deleted mice): no effect on apoptosis; macrophage accumulation in the kidney, NTN ([2]; Alk3 deleted mice): did not inhibit; renal injury and fibrosis, NTN ([2]; Alk-3 deleted mice): no efficacy; EMT program in the tubules, NTN ([2]; control mice): inhibition; macrophage accumulation in the kidney, NTN ([2]; control mice): inhibition; renal function (blood urea nitrogen), NTN ([2]; control mice): restored renal function; renal injury and fibrosis, NTN ([2]; control mice): successful in controlling renal injury and fibrosis; apoptosis, NTN kidney ([2]; wild type kidney): inhibit apoptosis
